Source: paper PMC11770746 (Journal of Medicinal Chemistry, 2025)

Tests used:
[1] = Stability of the Pt(IV) compounds in RPMI medium, monitored by HPLC; format: physicochemical; details: pH = 7, 37 °C, HPLC peak area
Experimental: The stability of the Pt(IV) compounds was measured in RPMI medium, at pH = 7 and 37 °C, by monitoring the peak area of the prodrugs as a function of time.
Pt(IV) complexes were dissolved in 1% DMSO and RPMI medium at pH 7.4, and kept at 37 °C. Stability half-lives, t1/2, were calculated by linear fitting of ln(At/A0) vs time (t), where At and A0 are the integrated peak areas by HPLC […].

[2] = Reduction by 10 equiv of ascorbic acid, monitored by HPLC; format: physicochemical; details: 10 eq. ascorbic acid, pH = 7, 37 °C
Experimental: To verify that the Pt(IV) prodrugs are activated by reduction, we incubated them with 10 eq. of ascorbic acid at pH = 7 at 37 °C and monitored by HPLC the reduction of the peak of the parent compound as a function of time.
The half-lives (t1/2) of all compounds were obtained after linear fitting of ln(At/A0) vs time (t) by considering a pseudo-first-order rate equation (At = A0e^–kt), where A0 and At are the integrated areas of HPLC peaks of the respective complexes at t = 0 and at time t, respectively, and k (slope) is the rate constant. Then, t1/2 was calculated by utilizing the equation t1/2 = 0.693/k.

[3] = system: A2780 ovarian carcinoma cells; test: Antiproliferative MTT assay, 72 h; format: cell-based, human; details: A2780, 72 h treatment
Experimental: (§4) After 72 h of exposure, the cell biomass was determined by 3-(4,5-dimethylthiazol-2-yl)-2,5-diphenyl tetrazolium bromide (MTT) (Sigma-Aldrich) staining, and the absorptions were calculated as the delta of two measurements of the same well at wavelengths 570 and 690 nm. IC50 values were determined as the concentration that caused 50% inhibition of cell proliferation compared to an untreated control. The results were calculated as the mean values of three independent experiments.
(§5) PC9 human non-small-cell lung carcinoma cells, A375 human malignant melanoma cells, and CT26 WT murine colon carcinoma cells were maintained in DMEM (high glucose, no glutamine/sodium pyruvate) supplemented with L-glutamine solution (4 mM) (2% v/v), 10% (v/v) heat-inactivated fetal bovine serum (South American origin, European grade), and 1% (v/v) penicillin–streptomycin solution (containing penicillin G sodium salt: 10 000 units/mL and streptomycin sulfate: 10 mg/mL) and were passaged twice a week.

[4] = system: A2780cisR cisplatin-resistant ovarian carcinoma cells; test: Antiproliferative MTT assay, 72 h; format: cell-based, human; details: 72 h treatment
Experimental: as §4, §5

[5] = system: A375 melanoma cells; test: Antiproliferative MTT assay, 72 h; format: cell-based, human
Experimental: as §4, §5

[6] = system: PC9 non-small-cell lung cancer cells; test: Antiproliferative MTT assay, 72 h; format: cell-based, human; details: PC9, 72 h treatment
Experimental: as §4, §5

[7] = system: CT26 murine colon cancer cells; test: Antiproliferative MTT assay, 72 h; format: cell-based; details: CT26, 72 h treatment
Experimental: as §4, §5

[8] = system: all cancer cell lines; test: Antiproliferative MTT assay, summary over the panel; format: cell-based; details: all cancer cell lines of the panel, 72 h
Experimental: as §4

[9] = system: murine CT26 colon cancer model; test: In vivo inhibition of tumor growth; details: CT26 s.c. in BALB/c mice, i.p. every other day up to 4 doses, equimolar: cisplatin 3, paclitaxel 8.5, combination 3 + 8.5, cisPt(Pac)(OH) and its micelles 12 mg/kg
[10] = Body weight changes in the CT26 efficacy study (general toxicity); format: in vivo, mice; details: i.p., equimolar doses
Experimental: Four-week-old female BALB/cAnNTac mice weighing 16–18 g were purchased from InVivos (Singapore). The animals were housed in Comparative Medicine (CM)-holding units at the National University of Singapore in a pathogen-free environment at constant temperature in a 12/12 h light/dark cycle environment. The mice were acclimatized for 3 days and given access to food and water ad libitum. The mouse colon carcinoma cells CT26 (1 × 10^5 cells in 100 μL of sterile PBS) were subcutaneously injected into the right flank of the mice. The administration of tested compounds was started when tumors became palpable (volume of ∼30 mm^3) on day 13. Subsequently, the animals were separated into 5 groups (n = 6 each) and injected i.p. with different compounds every other day up to 4 doses. Control mice were injected ip with 100 μL of sterile saline. The animals were controlled for pain and/or distress development, and the body weight and tumor size were closely monitored. […] The mice were euthanized when the diameter of the tumor reached 1.5 cm or upon development of ulceration.

[11] = Platinum accumulation in organs and tumor by ICP-MS (CT26 study); format: in vivo, mice; details: ICP-MS at end of the CT26 experiment
Experimental: Four-week-old female BALB/cAnNTac mice weighing 16–18 g were purchased from InVivos (Singapore). The animals were housed in Comparative Medicine (CM)-holding units at the National University of Singapore in a pathogen-free environment at constant temperature in a 12/12 h light/dark cycle environment. The mice were acclimatized for 3 days and given access to food and water ad libitum. The mouse colon carcinoma cells CT26 (1 × 10^5 cells in 100 μL of sterile PBS) were subcutaneously injected into the right flank of the mice. The administration of tested compounds was started when tumors became palpable (volume of ∼30 mm^3) on day 13. Subsequently, the animals were separated into 5 groups (n = 6 each) and injected i.p. with different compounds every other day up to 4 doses. Control mice were injected ip with 100 μL of sterile saline. The animals were controlled for pain and/or distress development, and the body weight and tumor size were closely monitored. All animals were alert and responsive during the whole experiment. The mice were euthanized when the diameter of the tumor reached 1.5 cm or upon development of ulceration. The tumor and organs (liver, kidney, and spleen) were collected […].
(§1) Samples were weighed and mineralized with highly pure 70% nitric acid (Pt: ≤0.01 μg kg^–1, TraceSELECT Ultra, Sigma Chemical Co.) for 3 h. Afterward, solutions were completely dried at 110 °C and 1000 μL of 1% HNO3 was added. The platinum content of each sample was measured by ICP-MS. The calibration curve was obtained using known concentrations of standard solutions purchased from Sigma Chemical Co.

[12] = system: kidney; details: mouse, in vivo
Excerpt: At the end of the experiments, mice were euthanized, and the tumor, spleen, liver, and kidneys were isolated and analyzed in terms of platinum content by ICP-MS (Figure 4F).
All of the kidney (left kidney) samples were flash-frozen immediately after weighing for cryosections for the histopathological evaluation using H&E staining technique. The tissues were embedded in the OCT compound and 10 μm thick sections were cut and placed onto glass slides using the Leica CM3050 S Cryostat. The slides were dried in a desiccator for approximately 1 h before rinsing in water. Sections are ready for staining immediately after rinse. The slides were stained with H&E (Hematoxylin and eosin) using Leica Autostainer XL. Then, the slides were dehydrated through ascending series of ethanol to xylene before being coverslipped using Leica Coverslipper CV5030. The slides were imaged using the LABOMED Opti CX biological microscope. At least two sections of each kidney sample were stained and 5–10 images were taken for each section under 10× and 40× magnifications. The images were analyzed for histopathological changes by two pathologists in a blinded manner.

[13] = system: mice; format: in vivo; details: acetone test; compared with cisplatin, paclitaxel, or their 1:1 co-administration
Experimental: (§2) The sensitivity to noxious heat was assessed by placing the mice on a hot plate (54 ± 1 °C) and measuring the latency (s), the time until the mice began licking their paws, shaking, or jumping to avoid the heat.
(§3) Von Frey, hot plate, acetone evaporation, and ocular aperture ratio studies were carried out in Balb/c mice according to reported methods.[3] […] Final injection volume was 150 μL. Afterward, tests were carried out 1, 2, and 3 weeks post first injection.
The test was carried out on a mesh floor, and acetone was dabbed on the plantar surface of the hind paw. Sensitivity to cold was recorded by the duration of nocifensive responses such as brisk withdrawal, flick of the paw, repeated flicking of the paw, repeated flicking of the hind paw, and licking of the paw. each group contained six animals.

[14] = system: mice; format: in vivo; details: hot plate 54 ± 1 °C; compared with cisplatin, paclitaxel, or their 1:1 co-administration
Experimental: as §2, §3
Unrestrained mouse was placed on a metal surface that was maintained at a constant temperature (54 ± 1 °C) and the response latency, which is the time taken to observe a nocifensive behavior, was recorded. These behaviors include fore paw withdrawal or licking, hind paw withdrawal or licking, stamping, leaning posture, and jumping. each group contained six animals. If no nocifensive behaviors were observed, the animals were removed from the hot plate after 30 s to prevent tissue damage.

[15] = system: mice; test: Ongoing pain, eye-closing ratio; format: in vivo; details: i.p. days 1, 3, 5
Experimental: Finally, we assessed whether the treatment with cisPt(OAc)2 or cisPt(Pac)(OH) prevents chemotherapy-induced ongoing pain, by assessing the eye-closing ratio.[53]−[55] The eye-closing ratio test was carried out prior to conducting the induced pain experiments. The eye-closing ratio was obtained by dividing the distance between the edges of the upper and lower eyelids by the length of the canthus (horizontal distance across the eye), where a value of 0 was given to completely closed eyes (indicating pain), and a value of 1 was given to fully open eyes (lack of pain).
as §3
The raw data for the ongoing pain was obtained by taking 3–5 photographs of each of the awake (not immobilized) mice and used such that the position of the eyelids in relation to the eye was clearly visible. The data were analyzed in a blind fashion by using the imaging software, ImageJ, to measure the length between the internal and external canthus (x) and the distance between the edge of the upper and lower eyelids (y). Finally, the ratio of y/x was calculated, and a value between 0 and 1 was obtained for each photo, where 0 is equivalent to the eye completely closed and 1 is equivalent to the eye completely open. The values obtained were an average of the values of the six animals in each group.

[16] = Platinum accumulation in the DRG by ICP-MS; format: in vivo, mice; details: day 7 after injections on days 1, 3, 5
Experimental: To explore whether the differences in the behavioral tests between cisplatin, cisplatin + paclitaxel, and cisPt(Pac)(OH) correlate with platinum accumulation in the DRG, we quantified the platinum in the DRG.
Afterward, on days 7–10, animals from each group were anesthetized using isoflurane and decapitated. Thereafter, DRG were removed and placed in DDW at room temperature.
as §1

[17] = system: mice; test: Mechanical allodynia, von Frey assay; details: for mechanical allodynia (in words): compared with the untreated mice
Experimental: as §3
8-week-old Balb/c mice were purchased from Envigo (Israel). Pain thresholds were assessed by observing withdrawal responses to mechanical stimulation of the plantar skin by using von Frey filaments. The mice were placed on a grid and allowed to accustom to the new environment for at least half an hour. The hind paw was touched vertically on the plantar surface with the tip of the filament. Once the fiber bends, the force applied is the maximum, making the repetitions reproducible. Hairs calibrated for forces between 0.008 and 2 g were applied 10 times each in ascending order of force at 5 s intervals to both hind paws. Sharp and quick leg withdrawal or immediate jumping in response to a touch with the hairs was considered as a withdrawal response. Paw movements associated with locomotion were not counted as the withdrawal response. The threshold of withdrawal response was defined when 6 out of 10 applications elicited pain responses. each group contained six animals.

Compound	t1/2 RPMI 1640 [1] [h]	t1/2 10 equiv Asc [2] [h]	IC50 [3] [nM]	IC50 [4] [nM]	IC50 ([5]; A375, 72 h treatment) [nM]	IC50 [6] [nM]	IC50 [7] [nM]	IC50 values (in words) [8]	Inhibition of Tumor Growth (TGI) [9] [%]	levels of Pt in the kidneys [11]	platinum levels in the tumor [11]	cold allodynia [13]	thermal hyperalgesia [14]	ongoing (spontaneous) pain [15]	mechanical allodynia (in words) ([17]; von Frey)	also measured
ctc-[Pt(NH3)2(Pac)(OH)Cl2] [cisPt(Pac)(OH)]	35	0.16	4.5 ± 2	5.9 ± 0.1	18 ± 3	6 ± 1	406 ± 106	low nM	65	much lower levels	rather similar	significantly reduced cold allodynia	significantly reduced	did not induce any ongoing pain		body weight loss compared to the control [10]: did not exhibit any substantial weight loss; kidney toxicity (creatinine and histopathology) [12]: lower kidney toxicity; platinum levels in the DRG [16]: lower than after treatment with cisplatin or the co-treatment with cisplatin and paclitaxel
CC(=O)[O][Pt]1([O]C(C)=O)[O]C(=O)C(=O)[O]1.NC1CCCCC1N [Oxali(OAc)2]	742	63														neuropathic pain by withdrawal thresholds to mechanical stimuli ([17]; male and female mice, 5.19 mg/kg i.p. days 1, 3, 5): did not induce neuropathic pain
N.N.[Cl][Pt][Cl] [cisplatin]			1180 ± 130	16200 ± 3140	1910 ± 620	5290 ± 1750	5890 ± 1190	low μM	41	high levels of Pt	rather similar			substantial spontaneous pain	persistent reduction in the withdrawal threshold	histopathological changes of the kidney tubules [12]: focal tubular necrosis; reduction of withdrawal threshold ([17]; von Frey, compared with untreated mice): about 95%
CC(=O)[O][Pt]([Cl])([Cl])[O]C(C)=O.N.N [cisPt(OAc)2]	120	7.8										significantly reduced cold allodynia	significantly reduced	did not induce any ongoing pain		
CC(=O)O[C@H]1C(=O)[C@@]2(C)[C@H]([C@H](OC(=O)c3ccccc3)[C@]3(O)C[C@H](OC(=O)[C@H](O)[C@@H](NC(=O)c4ccccc4)c4ccccc4)C(C)=C1C3(C)C)[C@]1(OC(C)=O)CO[C@@H]1C[C@@H]2O [paclitaxel]								low nM	27					substantial spontaneous pain	persistent reduction in the withdrawal threshold	IC50 ([3]; Homo sapiens): 2.2 ± 1 nM; IC50 ([4]; Homo sapiens): 3 ± 1 nM; IC50 ([5]; Homo sapiens, A-375, A375, 72 h treatment): 14 ± 4 nM; IC50 ([6]; Homo sapiens): 4.5 ± 2 nM; IC50 ([7]; Mus musculus): 384 ± 109 nM
